Experiments:
[1] = tested on: patient diagnosed with primary hypersomnia; experiment: Multidimensional Fatigue Inventory (MFI) in hypersomnia patients; format: in vivo, human; parameters: key: MFI subscale score; lower scores indicate improvement
Description: In some embodiments, the subject having hypersomnia is assessed using the Multidimensional Fatigue Inventory (MFI). The MFI is typically a 20-item scale designed to evaluate five dimensions of fatigue. In some embodiments, a total MFI score is calculated. In some embodiments, the MFI can include one or more scales (e.g., 1, 2, 3, 4, 5, 6, 7, 8, or more scales). In some embodiments, the MFI scales can include, e.g., a General Fatigue Scale, a Physical Activity Scale, a Reduced Activity Scale, a Reduced Motivation Scale, or a Mental Fatigue Scale. Generally, in MFI lower scores indicate improvements in the subject's […].
(§1) The patient was selected for PTZ treatments based on a clinical diagnosis of primary hypersomnia and the presence of an elevated level of an endogenous positive GABAA receptor allosteric modulator in the cerebrospinal fluid (CSF) of the subject relative to the CSF of a subject not having hypersomnia. The patient's sleepiness was scored according to the Epworth Sleepiness Scale (ESS), the Functional Outcomes of Sleep Questionnaire (FOSQ) Total Score, and the Multidimensional Fatigue Inventory (MFI). Additional clinical parameters recorded during the course of PTZ treatment included the Clinical Global Impression of Severity (CGI-S), the Clinical Global Impression of Change (CGI-C), the Beck Depression Inventory (BDI-II) Total Score and the patient's reported feelings of fogginess.
(§2) PTZ was orally administered to the patient twice daily at doses of 100 mg in liquid form in a TANG™ brand juice.
(§3) The patients were selected for PTZ treatments and evaluated as described in Example 2. PTZ was orally administered in liquid form in a TANG™ brand juice.
(§4) The patients were first evaluated while receiving flumazenil (Patient 1) or clarithromycin (Patient 2). […] A second evaluation of the two patients was performed at the end of the wash-out period. PTZ was then administered to Patient 1 for two weeks. During the first week, PTZ was administered to Patient 1 twice daily at doses of 100 mg, and during the second week PTZ was administered to Patient 1 at doses of 200 mg. PTZ was administered to Patient 2 for one week twice daily at doses of 100 mg. The patients were evaluated at the end of the first week (Patients 1 and 2) and at the end of the second week (Patient 1).

[2] = tested on: patient diagnosed with primary hypersomnia; experiment: Beck Depression Inventory (BDI-II) in hypersomnia patients; format: in vivo, human
Description: In some embodiments, the subject having hypersomnia is assessed using the Beck Depression Inventory (current version, published in 1996, is the BDI-II). In some embodiments, a BDI-II total score is determined. In some embodiments, a BDI-II total score of 0-13 indicates minimal depression; a score of 14-19 indicates mild depression; a score of 20-28 indicates moderate depression; and a score of 29-63 indicates severe depression.
as §1, §2, §3, §4

[3] = tested on: patient diagnosed with primary hypersomnia; experiment: Clinical Global Impression of Change (CGI-C) in hypersomnia patients; format: in vivo, human; settings: oral
Description: In some embodiments, the subject having hypersomnia is assessed using the Clinical Global Impression of Change (CGI-C).
as §1, §2, §3, §4

[4] = tested on: human patients diagnosed with primary hypersomnia; experiment: Overall comparison of treatments of hypersomnia in human patients; format: in vivo; settings: Patients 1 and 2 diagnosed with primary hypersomnia
Description: This example describes the treatment of hypersomnia by administering PTZ to two human patients having hypersomnia who were treated with flumazenil (Patient 1) or clarithromycin (Patient 2) prior to the administration of PTZ.
as §3, §4

[5] = tested on: patient diagnosed with primary hypersomnia; experiment: Functional Outcomes of Sleep Questionnaire (FOSQ) in hypersomnia patients; format: in vivo, human; parameters: key to FOSQ General Productivity Score / FOSQ Social Outcome Score / FOSQ Activity Level Score / FOSQ Vigilance Score / FOSQ Intimate Relationships and Sexual Activity Score: subscale score ~1-4; higher = improvement; key to Functional Outcomes of Sleep Questionnaire (FOSQ) Total Score: total score ~5-20; higher = improvement
Description: In some embodiments, the subject having hypersomnia is assessed using the Functional Outcomes of Sleep Questionnaire (FOSQ). The FOSQ can, e.g., be administered to the subject by asking the subject to rate the impact of a sleep disorder on a scale on activities within certain categories. In some embodiments, an FOSQ total score is determined. In some embodiments, the FOSQ total score is determined from one or more subscale scores (e.g., 1, 2, 3, 4, 5, 6, 7, 8, or more subscale scores). In some embodiments, the FOSQ subscale scores can include, e.g., a General Productivity Score, a Social Outcome Score, an Activity Level Score, a Vigilance Score, or an Intimate Relationship and Sexual Activity Score. A skilled artisan will recognize that higher FOSQ total or subscale scores indicate an improvement in the subject's hypersomnia. In some embodiments, FOSQ total scores can range from about 5 to 20. In some embodiments, FOSQ subscale scores can range from about 1 to 4.
as §1, §2, §3, §4

[6] = tested on: patient diagnosed with primary hypersomnia; experiment: Epworth Sleepiness Scale (ESS) in hypersomnia patients; format: in vivo, human
From the text: In some embodiments, total scores in the ESS range from 0 to 24. A skilled artisan will recognize that in the ESS scores at the lower end (towards 0) of the scale indicate an improvement in a subject's hypersomnia. In some embodiments, scores of 10 and above indicate significant hypersomnia symptoms in a subject. In some embodiments, changes of 2-3 points in the ESS indicate clinically meaningful improvements in the subject's hypersomnia.
as §1, §2, §3, §4

[7] = tested on: patient diagnosed with primary hypersomnia; experiment: Self-reported fogginess score in hypersomnia patients; format: in vivo, human; settings: oral, average of daily scores over one week
Description: In some embodiments, the subject having hypersomnia is assessed using a self-reported fogginess score. It is believed that the fogginess score can be used to evaluate a subject's clarity of thinking, which can reflect the subject's cognitive state. In some embodiments, the subject is asked how foggy the subject feels, e.g., since waking up in the morning or since midday. Scoring in a self-reported fogginess score can, e.g., be scored on a scale from 0 to 3.
as §1, §2, §3, §4

[8] = tested on: patient diagnosed with primary hypersomnia; experiment: Clinical Global Impression of Severity (CGI-S) in hypersomnia patients; format: in vivo, human
Description: In some embodiments, the subject having hypersomnia is assessed using the Clinical Global Impression of Severity (CGI-S).
as §1, §2, §3, §4

[9] = Patient 1 (patient of Example 2), after 1 week on PTZ 100 mg twice daily, oral
[10] = Patient 1, after 2 weeks on PTZ (200 mg twice daily in 2nd week), oral
[11] = Patient 2, after 1 week on PTZ 100 mg twice daily, oral
[12] = Patient 1 (patient of Example 2), after 1 week on PTZ 100 mg twice daily
[13] = Patient 1, after 2 weeks on PTZ (200 mg twice daily in 2nd week)
[14] = Patient 2, after 1 week on PTZ 100 mg twice daily
[15] = Patient of Example 2, after one week of PTZ treatment vs before treatment
[16] = Patient 1, before PTZ treatment, on flumazenil
[17] = Patient 2, before PTZ treatment, on clarithromycin

Q: What does the source list for `C1CCc2nnnn2CC1` [PTZ, pentylenetetrazol]?
A: Multidimensional Fatigue Inventory (MFI) General Fatigue Scale [1, 9]: 18; Multidimensional Fatigue Inventory (MFI) Mental Fatigue Scale [1, 9]: 7; Multidimensional Fatigue Inventory (MFI) Physical Fatigue Scale [1, 9]: 14; Multidimensional Fatigue Inventory (MFI) Reduced Activity Scale [1, 9]: 16; Multidimensional Fatigue Inventory (MFI) Reduced Motivation Scale [1, 9]: 9; Multidimensional Fatigue Inventory (MFI) General Fatigue Scale [1, 10]: 15; Multidimensional Fatigue Inventory (MFI) Mental Fatigue Scale [1, 10]: 8; Multidimensional Fatigue Inventory (MFI) Physical Fatigue Scale [1, 10]: 14; Multidimensional Fatigue Inventory (MFI) Reduced Activity Scale [1, 10]: 16; Multidimensional Fatigue Inventory (MFI) Reduced Motivation Scale [1, 10]: 11; Multidimensional Fatigue Inventory (MFI) General Fatigue Scale [1, 11]: 13; Multidimensional Fatigue Inventory (MFI) Mental Fatigue Scale [1, 11]: 6; Multidimensional Fatigue Inventory (MFI) Physical Fatigue Scale [1, 11]: 7; Multidimensional Fatigue Inventory (MFI) Reduced Activity Scale [1, 11]: 6; Multidimensional Fatigue Inventory (MFI) Reduced Motivation Scale [1, 11]: 7; Beck Depression Inventory (BDI-II) Total Score [2, 9]: 8; Beck Depression Inventory (BDI-II) Total Score [2, 10]: 5; Beck Depression Inventory (BDI-II) Total Score [2, 11]: 0; Clinical Global Impression of Change (CGI-C) [3, 12]: 3; Clinical Global Impression of Change (CGI-C) [3, 13]: 2; Clinical Global Impression of Change (CGI-C) [3, 14]: 2; Efficacy in the treatment of hypersomnia relative to flumazenil and clarithromycin [4]: superior efficacy; FOSQ Activity Level Score [5, 9]: 2.9; FOSQ General Productivity Score [5, 9]: 3.3; FOSQ Intimate Relationships and Sexual Activity Score [5, 9]: 2.0; FOSQ Social Outcome Score [5, 9]: 3.0; FOSQ Vigilance Score [5, 9]: 3.1; Functional Outcomes of Sleep Questionnaire (FOSQ) Total Score [5, 9]: 14.5; FOSQ Activity Level Score [5, 10]: 2.9; FOSQ General Productivity Score [5, 10]: 3.7; FOSQ Intimate Relationships and Sexual Activity Score [5, 10]: 3.0; FOSQ Social Outcome Score [5, 10]: 3.5; FOSQ Vigilance Score [5, 10]: 3.7; Functional Outcomes of Sleep Questionnaire (FOSQ) Total Score [5, 10]: 17.0; FOSQ Activity Level Score [5, 11]: 3.4; FOSQ General Productivity Score [5, 11]: 3.4; FOSQ Intimate Relationships and Sexual Activity Score [5, 11]: 4.0; FOSQ Social Outcome Score [5, 11]: 3.0; FOSQ Vigilance Score [5, 11]: 2.9; Functional Outcomes of Sleep Questionnaire (FOSQ) Total Score [5, 11]: 16.5; FOSQ Total Score increase [5, 15]: 8 points; Epworth Sleepiness Scale (ESS) Total Score [6, 9]: 13; Epworth Sleepiness Scale (ESS) Total Score [6, 10]: 9; Epworth Sleepiness Scale (ESS) Total Score [6, 11]: 8; ESS Total Score decrease [6, 15]: 6 points; How foggy have you felt since midday? [7, 12]: 0.1; How foggy have you felt since waking up this morning? [7, 12]: 1.1; How foggy have you felt since midday? [7, 13]: 0.7; How foggy have you felt since waking up this morning? [7, 13]: 1.0; How foggy have you felt since midday? [7, 14]: 1.2; How foggy have you felt since waking up this morning? [7, 14]: 2.1; Clinical Global Impression of Severity (CGI-S) [8, 9]: 5; Clinical Global Impression of Severity (CGI-S) [8, 10]: 4; Clinical Global Impression of Severity (CGI-S) [8, 11]: 3

Q: Which results are given for `CCOC(=O)c1ncn2c1CN(C)C(=O)c1cc(F)ccc1-2` [Flumazenil, flumazenil]?
A: Multidimensional Fatigue Inventory (MFI) General Fatigue Scale [1, 16]: 19; Multidimensional Fatigue Inventory (MFI) Mental Fatigue Scale [1, 16]: 16; Multidimensional Fatigue Inventory (MFI) Physical Fatigue Scale [1, 16]: 19; Multidimensional Fatigue Inventory (MFI) Reduced Activity Scale [1, 16]: 19; Multidimensional Fatigue Inventory (MFI) Reduced Motivation Scale [1, 16]: 12; Beck Depression Inventory (BDI-II) Total Score [2, 16]: 16; FOSQ Activity Level Score [5, 16]: 1.4; FOSQ General Productivity Score [5, 16]: 2.4; FOSQ Intimate Relationships and Sexual Activity Score [5, 16]: 1.0; FOSQ Social Outcome Score [5, 16]: 3.0; FOSQ Vigilance Score [5, 16]: 2.3; Functional Outcomes of Sleep Questionnaire (FOSQ) Total Score [5, 16]: 10; Epworth Sleepiness Scale (ESS) Total Score [6, 16]: 12; Clinical Global Impression of Severity (CGI-S) [8, 16]: 6

Q: What does the source list for `CC[C@H]1OC(=O)[C@H](C)[C@@H](O[C@H]2C[C@@](C)(OC)[C@@H](O)[C@H](C)O2)[C@H](C)[C@@H](O[C@@H]2O[C@H](C)C[C@H](N(C)C)[C@H]2O)[C@](C)(OC)C[C@@H](C)C(=O)[C@H](C)[C@@H](O)[C@]1(C)O` [Clarithromycin, clarithromycin]?
A: Multidimensional Fatigue Inventory (MFI) General Fatigue Scale [1, 17]: 17; Multidimensional Fatigue Inventory (MFI) Mental Fatigue Scale [1, 17]: 9; Multidimensional Fatigue Inventory (MFI) Physical Fatigue Scale [1, 17]: 13; Multidimensional Fatigue Inventory (MFI) Reduced Activity Scale [1, 17]: 9; Multidimensional Fatigue Inventory (MFI) Reduced Motivation Scale [1, 17]: 13; Beck Depression Inventory (BDI-II) Total Score [2, 17]: 0; FOSQ Activity Level Score [5, 17]: 2.3; FOSQ General Productivity Score [5, 17]: 3.4; FOSQ Intimate Relationships and Sexual Activity Score [5, 17]: 4.0; FOSQ Social Outcome Score [5, 17]: 3.0; FOSQ Vigilance Score [5, 17]: 2.1; Functional Outcomes of Sleep Questionnaire (FOSQ) Total Score [5, 17]: 15; Epworth Sleepiness Scale (ESS) Total Score [6, 17]: 8; Clinical Global Impression of Severity (CGI-S) [8, 17]: 4

Source: patent publication US10688103B2, “Methods for treating hypersomnia” (BALANCE THERAPEUTICS, INC., priority 2014, dated 2020)
